Experimental data from patent publication US10550102B2, “Indane and indoline derivatives and the use thereof as soluble guanylate cyclase activators” (NOVARTIS AG, priority 2014, dated 2020).

biological target: soluble guanylate cyclase (human GUCYA3 and GUCYB3) overexpressed in CHO cells (Homo sapiens (Human), UniProt Q02108+Q02153); assay: CHO cellular assay (cGMP production, Cisbio cGMP HTRF kit); type: cell-based; settings: CHO GUCY clone 8E10, cGMP production, assay buffer with 1 mM IBMX and 20 uM ODQ, 1 h room temperature; minimum quantification limit 0.5 nM (listed 0.5 nM means ≤0.5 nM); read-out: EC50
In short: (§1)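 EC50 was derived by 4-parameter sigmoidal fit of cGMP levels, read by HTRF against a standard curve. Compounds were applied for 1 h at room temperature, in buffer with 20 uM ODQ, 1 mM IBMX and 0.1% BSA (0.5% DMSO final). The cells were a stable CHO-K1 line (clone 8E10) overexpressing human GUCYA3 and GUCYB3, seeded at 3000/well.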

Sequence of soluble guanylate cyclase (human GUCYA3 and GUCYB3) overexpressed in CHO cells (Homo sapiens (Human), UniProt Q02108+Q02153) (Q02108 whole entry partner): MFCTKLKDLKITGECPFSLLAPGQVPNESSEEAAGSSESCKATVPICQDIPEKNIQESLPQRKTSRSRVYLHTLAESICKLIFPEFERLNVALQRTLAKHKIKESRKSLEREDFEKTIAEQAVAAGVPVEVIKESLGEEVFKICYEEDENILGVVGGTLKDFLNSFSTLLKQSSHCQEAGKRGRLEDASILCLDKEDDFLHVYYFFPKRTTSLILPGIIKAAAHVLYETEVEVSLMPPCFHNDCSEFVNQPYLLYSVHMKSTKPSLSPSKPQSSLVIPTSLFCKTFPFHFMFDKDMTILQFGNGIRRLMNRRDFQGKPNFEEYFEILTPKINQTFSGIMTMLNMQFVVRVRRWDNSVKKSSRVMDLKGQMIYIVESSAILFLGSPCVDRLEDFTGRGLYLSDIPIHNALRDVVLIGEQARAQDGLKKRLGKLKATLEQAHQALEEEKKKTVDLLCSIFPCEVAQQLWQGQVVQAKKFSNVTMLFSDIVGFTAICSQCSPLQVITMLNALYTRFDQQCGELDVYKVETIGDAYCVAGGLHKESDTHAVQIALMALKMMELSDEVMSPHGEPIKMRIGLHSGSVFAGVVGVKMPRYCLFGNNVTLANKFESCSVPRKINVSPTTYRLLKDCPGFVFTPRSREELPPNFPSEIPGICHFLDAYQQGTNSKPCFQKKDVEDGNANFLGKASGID
Sequence of soluble guanylate cyclase (human GUCYA3 and GUCYB3) overexpressed in CHO cells (Homo sapiens (Human), UniProt Q02108+Q02153) (Q02153 whole entry): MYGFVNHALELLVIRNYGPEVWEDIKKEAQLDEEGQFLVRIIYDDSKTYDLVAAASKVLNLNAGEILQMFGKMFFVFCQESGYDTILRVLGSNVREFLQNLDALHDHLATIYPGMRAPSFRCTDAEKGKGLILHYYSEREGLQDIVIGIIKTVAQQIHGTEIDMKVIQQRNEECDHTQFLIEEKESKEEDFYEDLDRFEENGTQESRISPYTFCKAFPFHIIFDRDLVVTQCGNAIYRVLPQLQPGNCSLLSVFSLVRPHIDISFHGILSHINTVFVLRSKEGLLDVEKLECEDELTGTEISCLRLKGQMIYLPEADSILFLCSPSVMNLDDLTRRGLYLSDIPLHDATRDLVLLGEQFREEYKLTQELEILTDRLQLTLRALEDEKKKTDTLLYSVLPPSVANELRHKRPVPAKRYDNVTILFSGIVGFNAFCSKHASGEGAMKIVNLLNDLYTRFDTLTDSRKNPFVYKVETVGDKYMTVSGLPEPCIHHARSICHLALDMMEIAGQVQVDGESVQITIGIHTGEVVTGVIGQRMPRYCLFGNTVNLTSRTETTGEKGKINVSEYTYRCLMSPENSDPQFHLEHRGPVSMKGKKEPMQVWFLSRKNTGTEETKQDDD

Compound | EC50
CCc1cc(CN2CC(C)c3cccc(-c4cccc(-n5ncc(C(=O)O)c5CC)n4)c32)ccc1C1CCN(C(=O)C2CC2)CC1 (single isomer, unassigned; (+)) [(+)-20-1, (+)-1-(6-(1-(4-(1-(Cyclopropanecarbonyl)piperidin-4-yl)-3-ethylbenzyl)-3-methylindolin-7-yl)pyridin-2-yl)-5-ethyl-1H-pyrazole-4-carboxylic acid] | ≤ 0.5 nM
CCC(=O)N1CCC(c2ccc(NC3CCc4cccc(-c5cccc(-n6ncc(C(=O)O)c6C)n5)c43)c(C)c2)CC1 (single isomer, unassigned) [(+)-46-2, (−)-5-Methyl-1-(6-(3-((2-methyl-4-(1-propionylpiperidin-4-yl)phenyl)amino)-2,3-dihydro-1H-inden-4-yl)pyridin-2-yl)-1H-pyrazole-4-carboxylic acid] | 1 nM
CCc1cc(CC2CCc3cccc(-c4cccc(-n5ncc(C(=O)O)c5CC)n4)c32)ccc1C1CCN(C(=O)[C@H](C)O)CC1 (single isomer, unassigned; (-)) [Example 39. b). (−)] | 1 nM
Cc1cc2c(c(-c3cccc(-n4ncc(C(=O)O)c4C(F)(F)F)n3)c1)C(Nc1ccc(C3CCN(C(=O)C4CC4)CC3)cc1C)CC2 (single isomer, unassigned; (+)) [43 (+), (+)-1-(6-(3-((4-(1-(Cyclopropanecarbonyl)piperidin-4-yl)-2-methylphenyl)amino)-6-methyl-2,3-dihydro-1H-inden-4-yl)pyridin-2-yl)-5-(trifluoromethyl)-1H-pyrazole-4-carboxylic acid] | 1 nM
Cc1cc(C2CCN(C(=O)C3CC3)CC2)ccc1OC1CCc2cccc(-c3cccc(-n4ncc(C(=O)O)c4C(F)(F)F)c3)c21 (single isomer, unassigned; (+)) [Example (+)-1. b), (+)-1-(3-(3-(4-(1-(cyclopropanecarbonyl)piperidin-4-yl)-2-methylphenoxy)-2,3-dihydro-1H-inden-4-yl)phenyl)-5-(trifluoromethyl)-1H-pyrazole-4-carboxylic acid] | ≤ 0.5 nM
CCc1cc(NC2CCc3cccc(-c4cccc(-n5ncc(C(=O)O)c5C)n4)c32)ccc1C1CCN(C(=O)C2CC2)CC1 (single isomer, unassigned; (+)) [(+)-46-6] | ≤ 0.5 nM
CCc1cc(CC2CCc3cccc(-c4cccc(-n5ncc(C(=O)O)c5C)n4)c32)ccc1C1CCN(C(=O)C2CC2)CC1 (single isomer, unassigned; (-)) [38-2 (−), (−)-1-(6-(3-(4-(1-(cyclopropanecarbonyl)piperidin-4-yl)-3-ethylbenzyl)-2,3-dihydro-1H-inden-4-yl)pyridin-2-yl)-5-methyl-1H-pyrazole-4-carboxylic acid] | 9 nM
Cc1cc(C2CCN(C(=O)C3CC3)CC2)ccc1NC1CCc2cccc(-c3cccc(-n4ncc(C(=O)O)c4C)n3)c21 (single isomer, unassigned; (-)) [Example 7b, (−)-1-(6-(3-((4-(1-(Cyclopropanecarbonyl)piperidin-4-yl)-2-methylphenyl)amino)-2,3-dihydro-1H-inden-4-yl)pyridin-2-yl)-5-methyl-1H-pyrazole-4-carboxylic Acid] | 2.4 nM
CCc1cc(CN2CC(C)c3cccc(-c4cccc(-n5ncc(C(=O)O)c5C)n4)c32)ccc1C1CCN(C(=O)C2CC2)CC1 (single isomer, unassigned; (+)) [(+)-20-3, (+)-1-(6-(1-(4-(1-(Cyclopropanecarbonyl)piperidin-4-yl)-3-ethylbenzyl)-3-methylindolin-7-yl)pyridin-2-yl)-5-methyl-1H-pyrazole-4-carboxylic acid] | ≤ 0.5 nM
Cc1nnc(N2CCC(c3ccc(NC4CCc5cccc(-c6cccc(-n7ncc(C(=O)O)c7C)n6)c54)c(C)c3)CC2)o1 (single isomer, unassigned; (-)) [58. b). (−), (−)-5-methyl-1-(6-(3-((2-methyl-4-(1-(5-methyl-1,3,4-oxadiazol-2-yl)piperidin-4-yl)phenyl)amino)-2,3-dihydro-1H-inden-4-yl)pyridin-2-yl)-1H-pyrazole-4-carboxylic acid] | 3.2 nM
Cc1cc(C2CCN(C(=O)C3CC3)CC2)ccc1CC1CCc2cccc(-c3cccc(-n4ncc(C(=O)O)c4C)n3)c21 (single isomer, unassigned; (-)) [Example 37. b). (−), (−)-1-(6-(3-(4-(1-(cyclopropanecarbonyl)piperidin-4-yl)-2-methylbenzyl)-2,3-dihydro-1H-inden-4-yl)pyridin-2-yl)-5-methyl-1H-pyrazole-4-carboxylic Acid] | 6.3 nM

biological target: soluble guanylate cyclase (human GUCYA3 and GUCYB3) overexpressed in CHO cells (Homo sapiens (Human), UniProt Q02153); assay: as above; type: cell-based; settings: CHO GUCY clone 8E10, cGMP production, assay buffer with 1 mM IBMX and 20 uM ODQ, 1 h room temperature; minimum quantification limit 0.5 nM (listed 0.5 nM means ≤0.5 nM)
In short: as §1

Sequence of soluble guanylate cyclase (human GUCYA3 and GUCYB3) overexpressed in CHO cells (Homo sapiens (Human), UniProt Q02153) (Q02108 whole entry partner): as the sequence (Q02108 whole entry partner) above
Sequence of soluble guanylate cyclase (human GUCYA3 and GUCYB3) overexpressed in CHO cells (Homo sapiens (Human), UniProt Q02153) (Q02153 whole entry): as the sequence (Q02153 whole entry) above

Compound | EC50
O=C(O)c1cnn(-c2cccc(-c3cccc4c3C(Oc3ccc(C5CCN(C(=O)C6CC6)CC5)cc3C(F)(F)F)CC4)n2)c1C(F)(F)F (single isomer, unassigned; enantiomer-2) [61. b). (enantiomer-2), (−)- or (+)-1-(6-(3-(4-(1-(cyclopropanecarbonyl)piperidin-4-yl)-2-(trifluoromethyl)phenoxy)-2,3-dihydro-1H-inden-4-yl)pyridin-2-yl)-5-(trifluoromethyl)-1H-pyrazole-4-carboxylic acid] | 2 nM
CCc1cc(CN2CC(C)c3cccc(-c4cccc(-n5ncc(C(=O)O)c5CC)n4)c32)ccc1C1CCN(C(=O)[C@H](C)O)CC1 (single isomer, unassigned) [Example 17b] | ≤ 0.5 nM
O=C(O)c1cnn(-c2cccc(-c3cccc4c3C(Oc3ccc(C5CCN(C(=O)C6CC6)CC5)cc3C(F)(F)F)CC4)n2)c1C(F)(F)F (single isomer, unassigned; enantiomer-1) [61. b). (enantiomer-1), (+)- or (−)-1-(6-(3-(4-(1-(Cyclopropanecarbonyl)piperidin-4-yl)-2-(trifluoromethyl)phenoxy)-2,3-dihydro-1H-inden-4-yl)pyridin-2-yl)-5-(trifluoromethyl)-1H-pyrazole-4-carboxylic acid] | 15 nM
CCc1cc(CN2CC(C)c3cccc(-c4cccc(-n5ncc(C(=O)O)c5C)n4)c32)ccc1C1CCN(C(=O)C2CC2)CC1 (single isomer, unassigned; (-)) [(−)-20-3, (−)-1-(6-(1-(4-(1-(Cyclopropanecarbonyl)piperidin-4-yl)-3-ethylbenzyl)-3-methylindolin-7-yl)pyridin-2-yl)-5-methyl-1H-pyrazole-4-carboxylic acid] | ≤ 0.5 nM
Cc1cc(C2CCN(C(=O)C3CC3)CC2)ccc1CN1CCc2cccc(-c3cccc(-n4ncc(C(=O)O)c4C)n3)c21 [Example 21-1, 1-(6-(1-(4-(1-(Cyclopropanecarbonyl)piperidin-4-yl)-2-methylbenzyl)indolin-7-yl)pyridin-2-yl)-5-methyl-1H-pyrazole-4-carboxylic acid] | ≤ 0.5 nM
CCc1cc(O[C@H]2CCc3cccc(-c4cccc(-n5ncc(C(=O)O)c5CC)n4)c32)ccc1C1CCN(C(=O)C(C)CCO)CC1 (single isomer, unassigned) [Example 32b] | ≤ 0.5 nM
O=C(O)c1cnn(-c2cccc(-c3cccc4c3C(Oc3ccc5c(c3)CCN(Cc3ccccn3)C5)CC4)n2)c1C(F)(F)F (single isomer, unassigned; (-)) [Example 4b, (−)-1-(6-(3-((2-(Pyridin-2-ylmethyl)-1,2,3,4-tetrahydroisoquinolin-6-yl)oxy)-2,3-dihydro-1H-inden-4-yl)pyridin-2-yl)-6-(trifluoromethyl)-1H-pyrazole-4-carboxylic Acid] | 116 nM
CCc1cc(CN2CC(C)c3cccc(-c4cccc(-n5ncc(C(=O)O)c5C(F)(F)F)n4)c32)ccc1C1CCN(C(=O)C2CC2)CC1 (single isomer, unassigned; (-)) [Example 19b, (−)-1-(6-(1-(4-(1-(Cyclopropanecarbonyl)piperidin-4-yl)-3-ethylbenzyl)-3-methylindolin-7-yl)pyridin-2-yl)-5-(trifluoromethyl)-1H-pyrazole-4-carboxylic Acid] | ≤ 0.5 nM
Cc1cc(C2CCN(C(=O)C3CC3)CC2)ccc1OC1CCc2cccc(-c3cccc(-n4ncc(C(=O)O)c4C(F)(F)F)n3)c21 (single isomer, unassigned; (-)) [Example 3b] | 6.9 nM
CCC[C@H](O)C(=O)N1CCC(c2ccc(NC3CCc4cccc(-c5cccc(-n6ncc(C(=O)O)c6CC)n5)c43)cc2CC)CC1 (single isomer, unassigned; (-)) [Example 49b] | 20 nM
(−)-Ethyl-1-(6-(3-((3-ethyl-4-(1-(isopropoxycarbonyl)piperidin-4-yl)phenyl)amino)-2,3-dihydro-1H-inden-4-yl)pyridin-2-yl)-1H-pyrazole-4-carboxylic Acid [Example 51b] | 3 nM
CCc1cc(NC2CCc3cccc(-c4cccc(-n5ncc(C(=O)O)c5CC)n4)c32)ccc1C1CCN(C(=O)[C@H](C)O)CC1 (single isomer, unassigned; (-)) [Example 48b] | 11 nM
CCc1cc(CN2CC(C)c3cccc(-c4cccc(-n5ncc(C(=O)O)c5CC)n4)c32)ccc1C1CCN(C(=O)C2CC2)CC1 (single isomer, unassigned; (-)) [(−)-20-1, (−)-1-(6-(1-(4-(1-(Cyclopropanecarbonyl)piperidin-4-yl)-3-ethylbenzyl)-3-methylindolin-7-yl)pyridin-2-yl)-5-ethyl-1H-pyrazole-4-carboxylic acid] | ≤ 0.5 nM
